# From US6935334B2, “Enhancing therapeutic effectiveness of nitric oxide inhalation” (The General Hospital Corporation, priority 2000, dated 2005)
# Experiments:
# [1] = Lung wet/dry ratio (Example 2); format: in vivo, mouse; conditions: breathing 4 or 40 ppm NO for 22 hours
# Description: Lung wet/dry ratio. After euthanasia with pentobarbital (0.1 mg/g intraperitoneally), both lungs, excluding hilar structures, were excised, blotted, and immediately weighed. Thereafter, the tissue was dried in a microwave oven for 60 minutes, as described previously (20), and reweighed. Lung wet/dry ratio was calculated.
# [2] = system: isolated-perfused mouse lungs preconstricted with U46619; assay: Pulmonary vasodilator response to NO inhalation in isolated, perfused and ventilated mouse lungs preconstricted with U46619; format: in vivo; conditions: for pulmonary vasodilator response to subsequent ventilation with NO after prolonged NO breathing: prolonged breathing of 20 ppm NO
# Description: Isolated, Perfused, and Ventilated Mouse Lung Model Mice were killed by intraperitoneal injection of pentobarbital sodium (200 mg/kg body weight) and placed in a 37° C. water-jacketed chamber (Isolated Perfused Lung Size 1 Type 839; Hugo-Sachs Elektronik, March-Hugstetten, Germany). The trachea was isolated and intubated, and the lungs were ventilated with 21% O2, 6% CO2 and 73% N2 using a volume-controlled ventilator (model 687; Harvard Apparatus, South Natick, Mass.) at a ventilatory rate of 85 breaths/min and 2 cm H2O end-expiratory pressure. The tidal volume was adjusted to provide a peak inspiratory pressure of 10 cm H2O throughout each study. The lungs were exposed via a midline sternotomy, and a ligataure was placaed around the aorticopulmonary outflow tract. After injection of 10 IU heparin into the right ventricle, the pulmonary artery was cannulated with a stainless steel cannula (1 mm ID) via the right ventricle. The pulmonary venous effluent was drained via a stainless steel cannula (1 mm ID) placed through the apex of the left ventricle across the mitral valve and into the left atrium. Left atrial pressure was maintained at 2 mmHg. Lungs were perfused at a constant flow (50 ml. kg body weight^−1. min^−1; Ismatec Reglo-Analogue roller pump; Laboratoriumstechnik GmbH, Wertheim-Mondfeld, Germany) with a non-recirculating system at 37° C. The perfusate used was Hanks' Balanced Salt Solution (GibcoBRL, Grand Island, N.Y.) containing 1.26 mM CaCl2, 5.33 mM KCl, 0.44 mM KH2PO4, 0.50 mM MgCl2, 0.41 mM MgSO4, 138.0 mM NaCl, 4.0 mM NaHCO3, 0.3 mM Na2HPO4, and 5.6 mM glucose. Bovine serum albumin, 5%, and dextran, 5% (both from Sigma Chemical Co., St. Louis, Mo.), were added to the perfusate to prevent pulmonary edema, in the isolated, perfused, and ventilated rat lung, essentially as described in Holzmann et al., 1996, Am. J. Physiol. 271:L981-L986. Indomethacin, […] (Sigma Chemical Co.), and 1 mM L-NAME (Sigma Chemical Co.) were added to the perfusate to inhibit endogenous prostaglandin and NO synthesis, respectively. Sodium bicarbonate was added to adjust the perfusate pH to 7.34-7.43.
# Pulmonary artery pressure (PAP) and left atrial pressure were measured via saline-filled membrane pressure transducers (Argon, Athens, Tex.) connected to a side port of the inflow and outflow cannulae, respectively. Airway pressure (Paw) was measured using a differential pressure transducer (model MP-45-32-871; Validyne Engineering Corp., Northridge, Calif.) connected to the inspiratory limb just before the Y piece. Pressure transducers were connected to a biomedical amplifier (Hewlett Packard 7754B, Andover, Mass.), and data were recorded at 150 Hz on a personal computer using an analog-to-digital interface with a data acquisition system (DI-220; Dataq Instruments, Akron, Ohio). The system was calibrated before each experiment.
# For NO inhalation, NO gas (800 or 80 ppm NO in nitrogen, Airco, Murray Hill, N.J.) was blended (Oxygen Blender; Bird Corporation, Palm Springs, Calif.) with oxygen, carbon dioxide, and nitrogen to achieve a final concentration of 21% O2, 6% CO2, and the desired NO concentration. NO and higher oxidative states of NO (NOx; CLD 700 AL; Eco Physics, Dürmten, Switzerland), oxygen (Hudson Ventronics Ddivision, Temecula, Calif.), and carbon dioxide (Datex CO2 monitor; Puritan-Bennett Corpration, Los Angeles, Calif.) concentrations were monitored continuously.
# Pulmonary Vascular Response to NO inhalation after Lipopolysaccharide Challenge Wild-type mice and NOS2-deficient mice were injected intraperitoneally with 50 mg/kg body weight Escherichia coli 0111:B4 lipopolysaccharide (LPS; Difco Laboratories, Detroit, Mich.) dissolved in saline 16 h before isolated lung perfusion. This time point was chosen based on previous studies in rats (Holzmann et al., 1996, Am. J. Physiol. 271:L981-L986). Untreated wild-type and NOS2-deficient mice served as controls. […]
smiles,measurement,setting,value
"[N]=O [NO, Nitric oxide]",wet/dry lung weight ratios,[1],did not alter
same,effect of NO inhalation on PAP,"[2]; 0.4, 4 and 40 ppm NO for 5 min each, all groups",decreased the PAP in a dose-dependent manner
same,ΔPAP (change in PAP by inhaled NO as percentage of U46619-induced increase),"[2]; 0.4 ppm NO, lipopolysaccharide-pretreated NOS2-deficient mice exposed to 20 ppm ambient NO for 16 h",−24±4%
same,ΔPAP (change in PAP by inhaled NO as percentage of U46619-induced increase),"[2]; 0.4 ppm NO, untreated control NOS2-deficient mice exposed to 20 ppm ambient NO for 16 h",−42±4%
same,ΔPAP (change in PAP by inhaled NO as percentage of U46619-induced increase),"[2]; 4 ppm NO, lipopolysaccharide-pretreated NOS2-deficient mice exposed to 20 ppm ambient NO for 16 h",−39±5%
same,ΔPAP (change in PAP by inhaled NO as percentage of U46619-induced increase),"[2]; 4 ppm NO, untreated control NOS2-deficient mice exposed to 20 ppm ambient NO for 16 h",−58±4%
same,ΔPAP (change in PAP by inhaled NO as percentage of U46619-induced increase),"[2]; 40 ppm NO, lipopolysaccharide-pretreated NOS2-deficient mice exposed to 20 ppm ambient NO for 16 h",−55±3%
same,ΔPAP (change in PAP by inhaled NO as percentage of U46619-induced increase),"[2]; 40 ppm NO, untreated control NOS2-deficient mice exposed to 20 ppm ambient NO for 16 h",−62±5%
same,subsequent responsiveness to short-term inhaled NO after prolonged NO breathing,"[2]; breathing 0.2 ppm NO for 16 h after lipopolysaccharide, NOS2-deficient mice",did not cause subsequent hyporesponsiveness
same,subsequent vasodilator response to 0.4 ppm NO inhalation after prolonged NO breathing,"[2]; breathing 2 ppm NO for 16 h after lipopolysaccharide, NOS2-deficient mice, compared with control mice",decreased the vasodilator response
same,pulmonary vasodilator response to subsequent ventilation with NO after prolonged NO breathing,[2]; endotoxin-challenged NOS2-deficient mice,markedly impaired the pulmonary vasodilator response
same,pulmonary vasodilator response to subsequent ventilation with NO after prolonged NO breathing,[2]; untreated wild-type or NOS2-deficient mice,does not impair the pulmonary vasodilator response
